Experimental data published in publication PMC3748599 (Environmental science & technology, 2013).
Where two headings read alike, the source gives them in different places.

Legend:
rat liver microsomes [1] = conditions: for parent compound detected at end of incubation (% of initial amount): 30 min; for HEPOXB formed (% of the HEPTA added): substrate HEPTA
[2] = cited from earlier work
rat liver microsomes [3] = assay: Enantioselective analysis; format: in vitro ADME; conditions: for enantiomeric enrichment of the parent compound: racemic substrate; for enantiomeric fraction (EF) of metabolite, range: range over microsomal preparations
CYP3A = conditions: liver microsomes of pretreated male rats; cited from earlier work
CYP2B = conditions: liver microsomes of pretreated male rats; cited from earlier work
CYP1A = conditions: liver microsomes of pretreated male rats; cited from earlier work
[4] = microsomes from DX-pretreated rats
[5] = microsomes from PB-pretreated rats
[6] = microsomes from VH-pretreated rats
[7] = microsomes from DX- and VH-pretreated rats
[8] = formed from cis- and trans-chlordane
[9] = substrate racemic C-CHLORD, microsomes from PB-pretreated rats

Structure (SMILES): ClC1=C(Cl)[C@]2(Cl)[C@H]3[C@H](Cl)[C@@H](Cl)C[C@H]3[C@@]1(Cl)C2(Cl)Cl (relative stereo) [T-CHLORD, trans-chlordane]
- parent compound detected at end of incubation (% of initial amount) (rat liver microsomes [1]; [4]): 80%
- parent compound detected at end of incubation (% of initial amount) (rat liver microsomes [1]; [5]): 32%
- parent compound detected at end of incubation (% of initial amount) (rat liver microsomes [1]; [6]): 94%
- enantiomeric enrichment in tissues ([2]; rats treated with T-CHLORD): (-)-T-CHLORD is enriched
- enantiomeric enrichment of the parent compound (rat liver microsomes [3]; [4]): slight enrichment of (-)-T-CHLORD
- enantiomeric enrichment of the parent compound (rat liver microsomes [3]; [5]): (-)-T-CHLORD was highly enriched
- enantiomeric enrichment of the parent compound (rat liver microsomes [3]; [6]): No enantiomeric enrichment

Structure (SMILES): ClC1=C(Cl)[C@]2(Cl)[C@@H]3[C@@H](Cl)[C@@H]4O[C@@H]4[C@@H]3[C@@]1(Cl)C2(Cl)Cl (single isomer, unassigned; isomer a) [HEPOXA, heptachlor epoxide isomer A]
- formation as metabolite from HEPTA (rat liver microsomes [1]; all three rat liver microsomal preparations): not to HEPOXA

Structure (SMILES): ClC1=C(Cl)[C@]2(Cl)[C@@H]3[C@@H](Cl)[C@H]4O[C@H]4[C@@H]3[C@@]1(Cl)C2(Cl)Cl (single isomer, unassigned; isomer b) [HEPOXB, heptachlor epoxide isomer B]
- HEPOXB formed (% of the HEPTA added) (rat liver microsomes [1]; [4]): 47%
- HEPOXB formed (% of the HEPTA added) (rat liver microsomes [1]; [5]): 82%
- HEPOXB formed (% of the HEPTA added) (rat liver microsomes [1]; [6]): 33%
- enantiomeric fraction (EF) of metabolite, range (rat liver microsomes [3]; formed from heptachlor): 0.44-0.54
- enantiomeric enrichment of metabolite (rat liver microsomes [3]; substrate racemic HEPTA, microsomes from DX-pretreated rats): enrichment of (-)-HEPOXB
- enantiomeric enrichment of metabolite (rat liver microsomes [3]; substrate racemic HEPTA, microsomes from PB-pretreated rats): slight but significant enrichment of (+)-HEPOXB
- enantiomeric enrichment of metabolite (rat liver microsomes [3]; substrate racemic HEPTA, microsomes from VH-pretreated rats): enrichment of (-)-HEPOXB

Structure (SMILES): ClC1=C(Cl)C2(Cl)[C@H]3C[C@H](Cl)[C@H](Cl)[C@H]3C1(Cl)C2(Cl)Cl (stereo partly drawn) [C-CHLORD, cis-Chlordane]
- change of parent compound levels in incubation (rat liver microsomes [1]; [7]): no statistically significant change
- change of parent compound levels in incubation (rat liver microsomes [1]; [5]): clearly decreased
- enantiomeric enrichment of the parent compound (rat liver microsomes [3]; [4]): did not reach statistical significance
- enantiomeric enrichment of the parent compound (rat liver microsomes [3]; [5]): (-)-C-CHLORD was only modestly enriched
- enantiomeric enrichment of the parent compound (rat liver microsomes [3]; [6]): (-)-C-CHLORD was only modestly enriched

Structure (SMILES): ClC1=CC2C(C1Cl)C1(Cl)C(Cl)=C(Cl)C2(Cl)C1(Cl)Cl (stereo not drawn) [DCC, 1,2-dichlorochlordene]
- enantiomeric fraction (EF) of metabolite, range (rat liver microsomes [3]; [8]): 0.42-0.90
- enantiomeric enrichment of metabolite (rat liver microsomes [3]; substrate racemic C-CHLORD, microsomes from DX-pretreated rats): clear enrichment of E1-DCC
- enantiomeric enrichment of metabolite (rat liver microsomes [3]; [9]): enrichment of E2-DCC
- enantiomeric enrichment of metabolite (rat liver microsomes [3]; substrate racemic C-CHLORD, microsomes from VH-pretreated rats): clear enrichment of E1-DCC

Structure (SMILES): ClC1=C(Cl)C2(Cl)C3C(Cl)C=CC3C1(Cl)C2(Cl)Cl (stereo not drawn) [HEPTA, Heptachlor]
- formation as metabolite from both chlordane isomers (rat liver microsomes [1]; microsomal incubations with T-CHLORD and C-CHLORD): not detected
- change of parent compound levels in incubation (rat liver microsomes [1]; [7]): significant decrease
- change of parent compound levels in incubation (rat liver microsomes [1]; [5]): significant decrease
- parent compound detected at end of incubation (% of initial amount) (rat liver microsomes [1]; [5]): 6%

Structure (SMILES): ClC1=C(Cl)[C@]2(Cl)[C@H]3[C@H]([C@H](Cl)[C@]4(Cl)O[C@H]34)[C@@]1(Cl)C2(Cl)Cl [OXY, oxychlordane]
- OXY formed (% of the total C-CHLORD added) (rat liver microsomes [1]; substrate C-CHLORD, microsomes from PB-pretreated rats): approximately 2%
- OXY levels formed, PB versus DX microsomes (rat liver microsomes [1]; substrate T-CHLORD, PB- versus DX-pretreated rats): 9 times
- enantiomeric enrichment in vivo ([2]; female rats treated for 28 days with trans-nonachlor or T-CHLORD): enrichment of (+)-OXY
- enantiomeric enrichment in vivo ([2]; male rats, all time-points investigated): (-)-OXY was enriched
- enantiomeric fraction (EF) of metabolite, range (rat liver microsomes [3]; [8]): 0.45-0.89
- enantiomeric enrichment of metabolite (rat liver microsomes [3]; [9]): (+)-OXY was enriched
- enantiomeric enrichment of metabolite (rat liver microsomes [3]; substrate racemic T-CHLORD, microsomes from DX-pretreated rats): (-)-OXY was slightly enriched
- enantiomeric enrichment of metabolite (rat liver microsomes [3]; substrate racemic T-CHLORD, microsomes from PB-pretreated rats): Enrichment of (+)-OXY

Structure (SMILES): CCC1(c2ccccc2)C(=O)NC(=O)NC1=O [PB, phenobarbital]
- CYP3A activity relative to microsomes from VH-pretreated animals (CYP3A): 2 times
- CYP2B activity relative to microsomes from VH-pretreated animals (CYP2B): 96 times
- CYP1A activity relative to microsomes from VH-pretreated animals (CYP1A): 4 times
